Measured values from paper PMC9544108 (Chemmedchem, 2022).
Numbered stars: 1 amine (or outer) side, 2 acyl side, 3 side chain; on linkers, the order of the positions; unused ones are H or OH. Square brackets hold non-standard residues; d marks the D form. Peptide text beside a SMILES is read from it. γGlu = O=C(O)[C@H](CCC(=O)[*:2])N[*:1]; βAsp = O=C(O)[C@H](CC(=O)[*:2])N[*:1]; Cya = N[C@@H](CS(=O)(=O)O)C(=O)O

How the values were obtained:
Pb-poisoned HT-29 cells [1] = test: recovery assay of Pb-poisoned cells (crystal violet); assay type: cell-based, human; details: HT-29, Pb(NO3)2 0.2 mM, further 23 h; for viability of Pb-poisoned cells relative to the negative control (recovery): peptide added 1 h later, up to 1 mM (5 equiv.), at least 3 independent experiments; for recovery of Pb-poisoned cells, in words: compound 0.02-1 mM added 1 h later
Procedure: Human HT‐29 cells were used to investigate the peptides′ detoxification capabilities.[17, 18, 22] Adhered cells were poisoned with Pb(NO3)2 (200 μM) and 1 h later treated with various concentrations of peptides[28] and of the benchmark drugs, ranging from 20 μM to 1 mM that are equal to 0.1–5 equivalents compared with the Pb(II) concentration. After an incubation of 23 h, the cells were washed and quantified with the crystal violet assay.[22, 29] Each experiment included both positive and negative controls, which were either cells left untreated with both metal ions and peptides or only poisoned with Pb(NO3)2, respectively. Each dataset was then compared to the negative control to report the peptide recovery abilities (Figures 3A–B and S2).
LCMS (ESI) Rt = 0.6 min, observed as [M+H]+
HT-29 cells were chosen as a representative human cell-line due to their high Pb sensitivity and as their medium, RPMI-1640, is compatible with Pb(II), inhibiting metal precipitation.
HT-29 cells were grown in 25 mM HEPES RPMI -1640 medium, supplemented with 1% L- […]
37 °C and 5% CO2. 96-well plates were prepared such that every well contain ed 10,000 cells in […]
concentration 0.2 mM). 10 µL of H2O were added to the positive control wells. 60 min after the […]
(which are 0.1, 0.25, 0.5, 1, 2 and 5 equivalents, respectively). To the positive control wells containing no metal and the negative control wells containing metal but no peptides, 10 µL of H2O were added, respectively. Each condition was performed in triplicates. […]
gently shaken (50 rpm) for 20 min. […]
dye was observed and allowed to dry overnight.
Recovery% = A[PepX]−A[blank] × 100% (S4)
A[blank] – absorbance of an empty well
Each experiment was performed on three independent repeats. Values are mean ± SD. […]
control for the recovery). Values are mean ± SD of at least 3 repeats. […]
and 1.0 mM. […] Each condition was […]

HT-29 cells [2] = details: HT-29, 0.02-1.0 mM, 23 h, crystal violet, no Pb
Procedure: We then tested the effect of 8 and 9 alone on cell viability compared with the two benchmark drugs.
96-well plates were prepared such that every well contained 10,000 HT-29 cells in 100 µL
medium, and the cells were allowed to adhere for 24 h.
To all wells but the positive control wells, 10 µL of each solution of the examined peptides (0.24,
and 1.0 mM. To the positive control wells, 10 µL of H 2O were added. Each condition was
performed in triplicates. The plates were incubated at 37 °C, and 5% CO2 for 23 h, after which the
medium was removed, the wells were washed with H2O, and 50 µL of crystal violet solution[10]
(500 mg crystal violet powder in 20 mL CH3OH and 80 mL H2O) were added to each well. The
plates were gently shaken (50 rpm) for 20 min. The plates were then washed with H 2O until no
more unbound dye was observed and allowed to dry overnight. 100 µL of CH3OH were added to
each well, and the plates were gently shaken (50 rpm) for 20 min, after which their absorbance
The toxicity of each concentration of a peptide was calculated according to Equation S5:
𝑇𝑜𝑥𝑖𝑐𝑖𝑡𝑦% = 𝐴[𝑃𝑒𝑝𝑋]−𝐴[𝑏𝑙𝑎𝑛𝑘] × 100% (S5)
A[PepX] – absorbance of well in the presence of X mM of peptide
A[POS] – absorbance of well that contains no peptides

Pb-poisoned HT-29 cells [3] = test: ICP-MS Pb content of cells and supernatant (mode of action); assay type: cell-based, human; details: for SN/C, ratio of Pb content in ppb in supernatants and cells: ICP-MS, three independent experiments
Procedure: In order to determine the mode of action of 8, by which it enables to achieve a high recovery of Pb‐poisoned HT‐29 cells, inductively coupled plasma mass spectrometry (ICP‐MS) was employed to determine the Pb content of the Pb‐poisoned cells and their respective supernatant. First, HT‐29 cells were poisoned with Pb(NO3)2 (0.2 mM) and the Pb content in the cells and in the medium was determined after 1 and 24 h.[22] The measurement after 1 h was performed to assess the Pb distribution at the time of peptide addition during the recovery experiment and the one after 24 h to reveal the distribution resulting without intervention. At both times, the fraction of intracellular Pb was low and most of the toxic metal was in the medium (Table S10). […] Next, we added 8 to the cells before and after poisoning them with Pb(II) ions to assess whether 8 prevents Pb(II) ions from entering the cells, expels them from the cells or transforms Pb(II) into a non‐toxic complex locally. […] Since treating Pb‐poisoned cells with 8 enables higher viability, despite the fact that their relative intracellular Pb content is elevated, we hypothesize that Pb crosses the cellular membrane from outside as a membrane permeable, non‐toxic Pb(II)‐8 complex.
Cells with Pb(II) ions only were analyzed after 1 or 24 h incubation with the metal salt as reference values:
To all wells, 10 µL of 2.2 mM Pb(NO3)2 were added (final concentration 0.2 mM) and the cells were incubated at 37 °C, and 5% CO2 for 1 h, after which samples were prepared for analysis by […]
Cells treated with 8 were analyzed in two sets that differed in the order of peptide and metal salt […]
After respective incubation times, the supernatants were homogenized by gently pipetting up and down and 50 µL were transferred and digested with 100 µL HNO3 (70%) for 1 h in a 15 mL tube. […] Pb in the supernatant was then quantified using ICP-MS.
Since the cells are adherent, residual supernatant was removed from each well and the cells were washed with RPMI (3x200 µL). […] Pb in the cells was then quantified using ICP-MS. […]

[4] = Ellman's test, oxidation of thiols to disulfide; assay type: physicochemical; details: 8 100 µM in H2O with 10% 1 M Tris buffer pH 8.0, RT, DTNB 300 µM, absorbance 412 nm
Procedure: (§1) To examine this, we used the Ellman's test,[43] where 8 was incubated in H2O, and the Ellman's reagent was added at given time points (Figure S9).[22] While 8 was started to be slightly oxidized within the first 2 h and was steadily forming disulfide bonds, after 24 h, roughly 40 % of the thiols were still reduced, enabling metal coordination within the experimental time frame of our in vitro study.
Calibration curve: to a 96-well plate with freshly-prepared solutions of Ac-Cys-OMe (12.5-200 µM) in H2O supplemented with 10% 1 M Tris buffer pH 8.0, a fresh solution of Ellman’s reagent (5,5'-dithiobis-(2-nitrobenzoic acid; DTNB; final concentration of 300 µM in H2O supplemented with 12.5 mM sodium acetate) was added. The absorbance of each well at 412 nm was then determined. The average and standard deviation within six wells containing the same AA concentration were calculated and linearly plotted using Origin software .
Seven 96-well plates were prepared identically with fresh solutions of 8 (100 µM) in H2O supplemented with 10% 1 M Tris buffer pH 8.0, where each condition is replicated in 3 wells. […] The absorbance of each well at 412 nm was then determined , and the concentration of free thiol per well was calculated according to the cal ibration curve. For each time frame, the average and standard deviation were calculated. […]

[5] = assay type: in vitro ADME; details: human blood serum (Sigma Aldrich), 100 µM peptide, 37 °C, aliquots from 0 min up to 48 h, precipitation with CH3CN:H2O 1:1, LCMS
Procedure: as §1
9 Stability in human blood serum
A freshly prepared solution of 8 (in H2O) was added to the human blood serum (HBS, purchased from Sigma Aldrich) to reach a final peptide concentration of 100 µM and a volume of 1 mL.
Samples were pipetted carefully up and down three times and incubated at 37 °C. Aliquots (50 µL) were taken periodically, starting from the addition of the serum (0 min) and continuing after 1 h up to 48 h. Aliquots were poured into a mixture of CH3CN:H2O (1:1; 200 µL) to precipitate the HBS proteins. The samples were cooled on ice for 30 min and centrifuged at 4’4 00 rpm for 10 min. The supernatant was analyzed by LCMS.
Figure S10. Stability of 8 in human blood serum.

HT-29 cells [6] = test: DCF assay, ROS production; assay type: cell-based, human; details: HT-29, peptide 1 mM, with or without Pb(II) 0.2 mM
Procedure: ROS production determination in the presence of Pb(II) ions […]
the cells were allowed to adhere overnight.
To all wells but the positive control wells, 5 µL of 2.2 mM Pb(NO3)2 were added (final concentration 0.2 mM). 5 µL of H2O were added to the positive control wells. 1 h after, 5 µL of 8 […]
control wells containing no metal and the negative control wel ls containing metal but no peptide, […]
removed, the wells were washed with PBS , and 50 µL of PBS were added to each well. 6.75 µL of 2',7'-dichlorodihydrofluorescein diacetate (H 2DCF-DA) (2.1 mM in DMSO) were added (final concentration 0.25 mM) and gently mixed. The plates were incubated for an additional 1 h.
Fluorescence was then measured at an excitation of 490 nm and an emission of 520 nm.
ROS production determination in the absence of Pb(II) ions […]
concentrations of 1 mM. To the positive control well s, 5 µL of H2O were added.
The plates were incu bated at 37 °C, and 5% CO2 for additional 23 h, after which the medium was […]

Compound	viability of Pb-poisoned cells relative to the negative control (recovery) (Pb-poisoned HT-29 cells [1])	effect of compound alone on cell viability, in words (HT-29 cells [2])	recovery of Pb-poisoned cells, in words (Pb-poisoned HT-29 cells [1])	further results
O=C1CC[C@@H](C(=O)O)NC(=O)[C@H](CS(=O)(=O)O)NC(=O)CNC(=O)[C@H](CS)NC(=O)CC[C@@H](C(=O)O)NC(=O)[C@H](CS(=O)(=O)O)NC(=O)CNC(=O)[C@H](CS)N1 [peptide 9] (cyclo(CG[Cya][γGlu]CG[Cya][γGlu]))	approximately 2.5 times	no toxicity at all	–	–
C[C@@H]1NC(=O)CNC(=O)[C@H](CS)NC(=O)CC[C@@H](C(=O)O)NC(=O)[C@H](C)NC(=O)CNC(=O)[C@H](CS)NC(=O)CC[C@@H](C(=O)O)NC1=O [peptide 2] (cyclo(A[γGlu]CGA[γGlu]CG))	–	–	enhanced viability of cells treated with 1 mM of 2 compared with lin2	–
C[C@@H]1NC(=O)CNC(=O)[C@H](CS)NC(=O)C[C@@H](C(=O)O)NC(=O)[C@H](C)NC(=O)CNC(=O)[C@H](CS)NC(=O)C[C@@H](C(=O)O)NC1=O [peptide 5] (cyclo(A[βAsp]CGA[βAsp]CG))	–	–	least active one	–
O=C(O)CN(CCN(CC(=O)O)CC(=O)O)CC(=O)O [EDTA, ethylenediaminetetraacetic acid, reference compound]	–	slight toxicity	–	–
NC(=O)C[C@@H]1NC(=O)CNC(=O)[C@H](CS)NC(=O)CC[C@@H](C(=O)O)NC(=O)[C@H](CC(N)=O)NC(=O)CNC(=O)[C@H](CS)NC(=O)CC[C@@H](C(=O)O)NC1=O [peptide 8] (cyclo(CGN[γGlu]CGN[γGlu]))	approximately 2.5 times	positively affect cell viability	–	supernatant-to-cells ratio of Pb compared with cells not treated with peptide, in words (Pb-poisoned HT-29 cells [3]; 8 added pre- or post-poisoning): reduced by approximately half; SN/C, ratio of Pb content in ppb in supernatants and cells (Pb-poisoned HT-29 cells [3]; condition 3: HT-29 poisoned with 0.2 mM Pb(NO3)2 1 h, then 1 mM 8, further 23 h): 56.3 ± 27.5; SN/C, ratio of Pb content in ppb in supernatants and cells (Pb-poisoned HT-29 cells [3]; condition 4: HT-29 given 1 mM 8 for 1 h, then 0.2 mM Pb(NO3)2, further 23 h): 43.3 ± 10.23; time within which oxidation started [4]: ≤ 2 h; thiols still reduced ([4]; after 24 h, 3 wells): roughly 40%; time stable in human blood serum [5]: at least 48 h; oxidative stress (ROS) compared with untreated cells, in words (HT-29 cells [6]): decreased the oxidative stress compared to untreated cells
